Experimental data from ChEMBL document CHEMBL1158725, “Microbial genomics as a guide to drug discovery and structural elucidation: ECO-02301, a novel antifungal agent, as an example” (2005).
In brackets after ≈: the same amount, converted by molar mass.

Legend:
Assay type in all cases: functional
Cryptococcus neoformans = experiment: Antifungal activity against Cryptococcus neoformans ATCC 32045 by broth dilution susceptibility test
Aspergillus flavus = experiment: Antifungal activity against Aspergillus flavus ATCC 204304 by broth dilution susceptibility test
Nakaseomyces glabratus = experiment: Antifungal activity against Candida glabrata ATCC 90030 by broth dilution susceptibility test
Clavispora lusitaniae = experiment: Antifungal activity against Candida lusitaniae ATCC 200953 by broth dilution susceptibility test
Aspergillus fumigatus = experiment: Antifungal activity against Aspergillus fumigatus ATCC 204305 by broth dilution susceptibility test
Candida tropicalis = experiment: Antifungal activity against Candida tropicalis ATCC 200955 by broth dilution susceptibility test
Saccharomyces cerevisiae = experiment: Antifungal activity against Saccharomyces cerevisiae ATCC 9763 by broth dilution susceptibility test
Pichia kudriavzevii = experiment: Antifungal activity against Candida krusei LSPQ 0309 by broth dilution susceptibility test
Candida albicans = experiment: Antifungal activity against Candida albicans ATCC 10231 by broth dilution susceptibility test

| Structure (SMILES) | MIC (Cryptococcus neoformans) [µg/mL] | MIC (Aspergillus flavus) [µg/mL] | MIC (Nakaseomyces glabratus) [µg/mL] | MIC (Clavispora lusitaniae) [µg/mL] | MIC (Aspergillus fumigatus) [µg/mL] | MIC (Candida tropicalis) [µg/mL] | MIC (Saccharomyces cerevisiae) [µg/mL] | MIC (Pichia kudriavzevii) [µg/mL] | MIC (Candida albicans) [µg/mL] |
| --- | --- | --- | --- | --- | --- | --- | --- | --- | --- |
| CC(/C=C/CC/C=C/C=C/C=C/C=C/C(=O)NC1=C(O)CCC1=O)C(O)C(C)C(O)/C=C/C=C/C=C/C=C/C=C/CC(O[C@@H]1O[C@@H](C)[C@H](O)[C@@H](O)[C@H]1O)C(C)C(=O)CC(O)CC(O)CC(O)/C=C/CC(O)CC(O)CC(O)CC(O)/C=C/CC(O)CC(O)CCCN (stereo in doubt) | 4 (≈ 3.08 µM) | ≥ 8 | 4 (≈ 3.08 µM) | 4 (≈ 3.08 µM) | 16 (≈ 12.3 µM) | 4 (≈ 3.08 µM) | 4 (≈ 3.08 µM) | 4 (≈ 3.08 µM) | 4 (≈ 3.08 µM) |
| C[C@@H]1[C@H](O)[C@@H](C)/C=C/C=C/C=C/C=C/C=C/C=C/C=C/[C@H](O[C@@H]2O[C@H](C)[C@@H](O)[C@H](N)[C@@H]2O)C[C@@H]2O[C@](O)(C[C@@H](O)C[C@@H](O)[C@H](O)CC[C@@H](O)C[C@@H](O)CC(=O)O[C@H]1C)C[C@H](O)[C@H]2C(=O)O [AMPHOTERICIN B] |  | 4 (≈ 4.33 µM) | 1 (≈ 1.08 µM) | 1 (≈ 1.08 µM) | 2 (≈ 2.16 µM) | 2 (≈ 2.16 µM) | 1 (≈ 1.08 µM) |  | 1 (≈ 1.08 µM) |
